This is an account of results in article PMC3923439, “Anti-inflammatory properties of a novel peptide interleukin 1 receptor antagonist” (Journal of Neuroinflammation, 2014).

Assay [1] has as its system HEK-Blue IL-1β cells (IL-1RI / NF-κB). Kind of assay: IL-1β-induced NF-κB activation, SEAP reporter. It counts as cell-based. Particulars: 1.2 pM IL-1β, 24 hours, SEAP read at 600 nm, four independent experiments. How it is done:
HEK-Blue IL-1β cells that contained an IL-1β-sensitive reporter (InvivoGen, San Diego, CA, USA) and HEK-Blue IL-6 cells that contained an IL-6-sensitive reporter (InvivoGen) were grown at 37°C with 5% CO2 in Dulbecco’s modified Eagle’s medium (DMEM) supplemented with 5% (vol/vol) fetal calf serum (FCS), 4.5 g/L glucose, 2 mM GlutaMAX medium, 100 U/ml penicillin, 100 μg/ml streptomycin (all obtained from Gibco BRL/Life Technologies, Taastrup, Denmark), 100 μg/ml zeocin, 200 μg/ml hygromycin and 100 μg/ml Normocin (all purchased from InvivoGen).
HEK-Blue IL-1β cells allow the monitoring of the activation of the NF-κB pathway specifically in response to IL-1β. They express a NF-κB-inducible secreted embryonic alkaline phosphatase (SEAP) reporter gene. The binding of IL-1β to its receptor IL-1RI on the surface of HEK-Blue IL-1β cells triggers a signaling cascade that leads to the activation NF-κB and the subsequent production of SEAP. HEK-Blue IL-1β cells were grown as described above. The cells were seeded onto a 96-well plate at a density 3.5 × 10^5 cells/ml. For the NF-κB activation assay, the cells were treated with 1.2 pM IL-1β alone or together with sIL-1RI, IL-1Ra or various concentrations of Ilantide. After 24 hours of incubation at 37°C, 150 μl of the cell supernatants were added to each well of a 96-well plate together with 50 μl of QUANTI-Blue (InvivoGen), incubated at 37°C for 40 minutes and measured in an enzyme-linked immunosorbent assay (ELISA) reader at 600 nm to determine the expression levels of reporter genes activated by NF-κB.

The subject of assay [2] is AMJ2-C8 macrophages. The assay can be described thus: TNF-α secretion from IL-1β-activated macrophages (L929 bioassay). It counts as cell-based, mouse. Particulars: 1.2 pM IL-1β, 24 hours; TNF-α by L929 survival with actinomycin D; hydrocortisone at 100 μM. As to the method: A murine alveolar macrophage cell line, AMJ2-C8 (American Type Culture Collection, Borås, Sweden), was routinely grown at 37°C with 5% CO2 in DMEM supplemented with 5% (vol/vol) FCS, 0.5% (v/v) 2-[4-(2-hydroxyethyl)piperazin-1-yl]ethanesulfonic acid (HEPES) (Gibco BRL), 2 mM GlutaMAX, 100 U/ml penicillin and 100 μg/ml streptomycin.
AMJ2-C8 macrophages were seeded into six-well multidishes at a density of 2.5 × 10^5 cells/well, and sIL-1RI, IL-1Ra or various concentrations of Ilantide were added to the cultures. Treatment with 100 μM hydrocortisone (Sigma-Aldrich, Brøndby, Denmark) was used as a positive control. After 10-minute incubation at 37°C, 1.2 pM IL-1β or IFN-γ (R&D Systems) was added to activate the macrophages. L929 cells were seeded onto a 96-well plate (Nunc, Roskilde, Denmark) at a density 0.2 × 10^2 cells/ml. Both cell cultures were incubated for 24 hours at 37°C. Conditioned medium from macrophages was collected and added to the L929 cell cultures together with actinomycin D (0.6 μg/well; Sigma-Aldrich). TNF-α is known to induce classic apoptosis in L929 cells in the presence of actinomycin D [12]. After 24-hour incubation at 37°C, 20 μl of 3-(4,5-dimethylthiazol-2-yl)-5-(3-carboxymethoxyphenyl)-2-(4-sulfophenyl)-2H-tetrazolium (Promega, Madison, WI, USA) were added to each well and incubated at 37°C in the dark for 45 minutes, then measured in an ELISA reader at 490 nm. To calculate the amount of TNF-α in the conditioned medium, fibroblasts were treated with standard concentrations of TNF-α (R&D Systems).

Assay [3] relates to double-Ig module (Ig1-Ig2) of NCAM. Kind of assay: Surface plasmon resonance, negative control protein. It counts as binding. Particulars: SPR. As to the method:
The binding analysis was performed using a Biacore 2000 instrument (GE Healthcare Life Sciences) that contained 150 mM NaCl as running buffer at 25°C with 10 mM sodium phosphate (pH 7.4). The flow rate was 5 μl/min during immobilization. Ilantide peptide, IL-1β or IL-1Ra was immobilized on a CM4 sensor chip according to the manufacturer’s instructions, after which the recombinant ectodomain of IL-1RI (R&D Systems) was injected. The neural cell adhesion molecule (NCAM) immunoglobulin modules 1 and 2 (Ig1 and Ig2) were used as a negative control protein [9]. The data were analyzed using nonlinear curve-fitting with the manufacturer’s software.

The subject of assay [4] is Cerebellar granule neurons. Kind of assay: Survival of cerebellar granule neurons induced to undergo apoptosis by low potassium. The class given is cell-based, rat. The conditions noted are these: 5 mM KCl, survival estimated 48 hours later. As to the method: Cerebellar granule neurons (CGNs) were prepared from 7-day-old Wistar rats (from Charles River Laboratories, Sulzfeld, Germany; or from Hygind Møllegård Erik Møllegaard Hansen, Ejby, Denmark) as previously described. Briefly, the cerebella were cleared of meninges and blood vessels, roughly homogenized by chopping and trypsinized. The cells were washed in the presence of DNAse I and soybean trypsin inhibitor (Sigma-Aldrich, St Louis, MO, USA), and cellular debris was pelleted by centrifugation. The fibroblastoid mouse cell line L929 (LVN; European Collection of Cell Cultures, Porton Down, UK) was routinely grown at 37°C with 5% CO2 in DMEM supplemented with 10% (vol/vol) FCS, 2 mM GlutaMAX, 100 U/ml penicillin and 100 μg/ml streptomycin.
Cerebellar granule neurons were plated at a density of 1 × 10^5 cells/cm^2 on poly-L-lysine-coated, eight-well Permanox Lab-Tek chamber slides (Nunc) in Neurobasal-A medium supplemented with 2% (vol/vol) B27 (Gibco BRL), 0.5% (vol/vol) GlutaMAX, 100 U/ml penicillin and 100 μg/ml streptomycin. The CGN survival assay was performed as previously described. The neurite outgrowth assay was also performed as previously described.
Figure 5 Effect of Ilantide and interleukin 1 receptor antagonist on survival of cerebellar granule neurons induced to undergo apoptosis. The neurons were allowed to differentiate for 7 days in a high-potassium (40 mM) medium before apoptosis was induced by changing to a low-potassium medium (5 mM). Survival was estimated 48 hours later. (A) The effect of insulin-like growth factor 1 (IGF-1), interleukin 1 receptor antagonist (IL-1Ra) and IL-1β on cerebellar granule neuron (CGN) apoptosis induced by 5 mM KCl. (B) The effect of Ilantide-m on CGN apoptosis induced by 5 mM KCl. […] The results from at least four independent experiments are expressed as mean ± SEM with untreated cultures induced to undergo apoptosis by 5 mM KCl set at 100%. *P < 0.05 and **P < 0.01 compared with untreated cultures induced to undergo apoptosis (one-way analysis of variance followed by Newman-Keuls post hoc test).

Positions of bridges follow the written chain, without caps; N, C: chain ends. Chains are numbered I, II in the order given. No end group written: not given here.

For “I: SGRKSSKMQAKK-NH2 / II: SGRKSSKMQAK / III: SGRKSSKMQA / IV: SGRKSSKMQA (amide I:11-IV:C, I:12-II:C, II:11-III:C; C-terminus assumed) [Ilantide-t]”, the “Inhibition of NF-κB activation induced by IL-1β” value in assay [1] is “dose-dependently inhibited”. In assay [2], the “Inhibition of IL-1β-induced TNF-α secretion in macrophages” value is listed as “significantly inhibited”. Further, in assay [3], the “Binding to double-Ig module of NCAM (negative control)” value is listed as “no significant binding”. The “CGN survival after potassium withdrawal” value in assay [4] is “concentration-dependently promoted CGN survival”.

Take “IL-1Ra: recombinant interleukin 1 receptor antagonist purchased from R&D Systems”: the “Inhibition of NF-κB activation induced by IL-1β” value in assay [1] is reported as “dose-dependently inhibited”. Besides, in assay [2], the “Inhibition of IL-1β-induced TNF-α secretion in macrophages” value is “significantly inhibited”. For the same substance, in assay [3], the “Binding to double-Ig module of NCAM (negative control)” value was “no significant binding”. For the same substance, the “CGN survival after potassium withdrawal” value in assay [4] was “concentration-dependently promoted CGN survival”.
